Patent US7750003B2, “Compounds-943” (AstraZeneca AB, priority 2006, dated 2010)
pIC50: −log10 of the molar value.

Target: recombinant mTOR (FLAG-tagged, residues 1362-2549) (Homo sapiens, UniProt P42345)
Assay: In vitro mTOR kinase assay (Test (a), AlphaScreen)
Format: biochemical
Conditions: ATP 20 μM, read-out: Test (a): IC50 versus mTOR kinase
In short: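 AlphaScreen read-out: a phospho-T389 p70 S6K antibody on acceptor beads captures the phosphorylated biotin-peptide on donor beads, with signal loss indicating inhibition.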

Sequence of recombinant mTOR (FLAG-tagged, residues 1362-2549) (P42345 1362-2549): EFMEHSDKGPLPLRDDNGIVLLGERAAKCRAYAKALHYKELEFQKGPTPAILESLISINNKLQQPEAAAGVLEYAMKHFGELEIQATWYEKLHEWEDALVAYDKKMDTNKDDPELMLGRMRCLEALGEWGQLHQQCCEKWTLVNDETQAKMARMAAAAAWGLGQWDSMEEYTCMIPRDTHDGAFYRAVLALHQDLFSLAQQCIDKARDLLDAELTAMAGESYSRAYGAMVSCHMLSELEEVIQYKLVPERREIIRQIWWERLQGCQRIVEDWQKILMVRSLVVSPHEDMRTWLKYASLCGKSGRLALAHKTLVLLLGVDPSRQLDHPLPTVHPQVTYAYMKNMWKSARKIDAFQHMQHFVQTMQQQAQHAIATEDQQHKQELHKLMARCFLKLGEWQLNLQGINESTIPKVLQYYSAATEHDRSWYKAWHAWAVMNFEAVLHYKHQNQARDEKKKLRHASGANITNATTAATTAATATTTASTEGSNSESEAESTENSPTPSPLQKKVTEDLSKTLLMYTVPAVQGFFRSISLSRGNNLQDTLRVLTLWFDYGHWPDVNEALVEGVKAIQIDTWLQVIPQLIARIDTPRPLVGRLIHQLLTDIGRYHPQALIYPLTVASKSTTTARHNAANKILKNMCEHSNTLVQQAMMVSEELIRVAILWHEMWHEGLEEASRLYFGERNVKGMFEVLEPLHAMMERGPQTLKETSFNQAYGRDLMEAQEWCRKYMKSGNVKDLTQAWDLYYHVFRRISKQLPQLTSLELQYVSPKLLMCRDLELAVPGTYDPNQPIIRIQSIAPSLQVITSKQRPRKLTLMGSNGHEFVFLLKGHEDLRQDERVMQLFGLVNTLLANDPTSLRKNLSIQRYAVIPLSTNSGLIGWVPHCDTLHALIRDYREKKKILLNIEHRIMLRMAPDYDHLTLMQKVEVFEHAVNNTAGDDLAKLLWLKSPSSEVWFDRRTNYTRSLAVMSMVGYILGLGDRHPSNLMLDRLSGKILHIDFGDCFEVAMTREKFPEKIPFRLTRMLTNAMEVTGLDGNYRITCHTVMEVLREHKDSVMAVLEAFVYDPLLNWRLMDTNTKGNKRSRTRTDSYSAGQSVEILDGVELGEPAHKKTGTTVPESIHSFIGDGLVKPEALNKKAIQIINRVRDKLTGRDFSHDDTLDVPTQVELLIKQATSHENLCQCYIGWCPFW

Row | SMILES | pIC50
1 | CC(C)NC(=O)Nc1cccc(-c2nc(CS(C)(=O)=O)cc(N3CCOC[C@@H]3C)n2)c1 [Example 8g, 1-[3-[4-[(3S)-3-Methylmorpholin-4-yl]-6-(methylsulfonylmethyl)pyrimidin-2-yl]phenyl]-3-propan-2-yl-urea] | 6.02
2 | CCCNC(=O)Nc1ccc(-c2nc(CS(C)(=O)=O)cc(N3CCOCC3)n2)cc1 [Example 7n, 3-[4-[4-(methylsulfonylmethyl)-6-morpholin-4-yl-pyrimidin-2-yl]phenyl]-1-propyl-urea] | 6.70
3 | CC(C)S(=O)(=O)Cc1cc(N2CCOC[C@@H]2C)nc(-c2ccc(NC(=O)Nc3ccccc3)cc2)n1 [Example 9, 1-[4-[4-[(3S)-3-Methylmorpholin-4-yl]-6-(propan-2-ylsulfonylmethyl)pyrimidin-2-yl]phenyl]-3-phenyl-urea] | 6.23
4 | CN(C(=O)Nc1ccc(-c2nc(CS(C)(=O)=O)cc(N3CCOCC3)n2)cc1)C1CC1 [Example 8e, 1-cyclopropyl-1-methyl-3-[4-[4-(methylsulfonylmethyl)-6-morpholin-4-yl-pyrimidin-2-yl]phenyl]urea] | 6.55
5 | CC(=O)NCCS(=O)(=O)Cc1cc(N2CCOC[C@@H]2C)nc(-c2ccc(NC(=O)N(C)C)cc2)n1 [Example 16, N-[2-[[2-[4-(Dimethylcarbamoylamino)phenyl]-6-[(3S)-3-methylmorpholin-4-yl]pyrimidin-4-yl]methylsulfonyl]ethyl]acetamide] | 5.40
6 | C[C@H]1COCCN1c1cc(CO)nc(-c2ccc(NC(=O)NC3CC3)cc2)n1 [Example 42, 3-Cyclopropyl-1-[4-[4-(hydroxymethyl)-6-[(3S)-3-methylmorpholin-4-yl]pyrimidin-2-yl]phenyl]urea] | 6.72
7 | C[C@H]1COCCN1c1cc(CS(C)(=O)=O)nc(-c2ccc(NC(=O)Nc3ccc(F)cc3)cc2)n1 [Example 1e, 3-(4-fluorophenyl)-1-[4-[4-[(3S)-3-methylmorpholin-4-yl]-6-(methylsulfonylmethyl)pyrimidin-2-yl]phenyl]urea] | 6.49
8 | C[C@H]1COCCN1c1cc(CS(C)(=O)=O)nc(-c2ccc(NC(=O)Nc3ccc(F)cc3)c(F)c2)n1 [Example 1f, 1-[2-fluoro-4-[4-[(3S)-3-methylmorpholin-4-yl]-6-(methylsulfonylmethyl)pyrimidin-2-yl]phenyl]-3-(4-fluorophenyl)urea] | 6.44
9 | CNC(=O)Nc1ccc(-c2nc(CO)cc(N3CCOC[C@@H]3C)n2)cc1 [Example 18, 1-[4-[4-(Hydroxymethyl)-6-[(3S)-3-methylmorpholin-4-yl]pyrimidin-2-yl]phenyl]-3-methyl-urea] | 6.92
10 | CS(=O)(=O)Cc1cc(N2CCOCC2)nc(-c2ccc(NC(=O)Nc3ccccc3)cc2)n1 [Example 7h, 1-[4-[4-(methylsulfonylmethyl)-6-morpholin-4-yl-pyrimidin-2-yl]phenyl]-3-phenyl-urea] | 6.62
11 | CS(=O)(=O)Cc1cc(N2CCOCC2)nc(-c2ccc(NC(=O)NCCc3cccs3)cc2)n1 [Example 7q, 1-[4-[4-(methylsulfonylmethyl)-6-morpholin-4-yl-pyrimidin-2-yl]phenyl]-3-(2-thiophen-2-ylethyl)urea] | 5.77
12 | C[C@H]1COCCN1c1cc(CN2CCOCC2)nc(-c2ccc(NC(=O)Nc3ccccc3)cc2)n1 [Example 27, 1-[4-[4-[(3S)-3-Methylmorpholin-4-yl]-6-(morpholin-4-ylmethyl)pyrimidin-2-yl]phenyl]-3-phenyl-urea] | 6.72
13 | CNC(=O)Nc1ncc(-c2nc(N3CCOC[C@@H]3C)cc(C(C)(C)S(C)(=O)=O)n2)s1 [Example 47, 3-Methyl-1-[5-[4-[(3S)-3-methylmorpholin-4-yl]-6-(2-methylsulfonylpropan-2-yl)pyrimidin-2-yl]-1,3-thiazol-2-yl]urea] | 6.59
14 | CNC(=O)CS(=O)(=O)Cc1cc(N2CCOC[C@@H]2C)nc(-c2ccc(NC(=O)NC)cc2)n1 [Example 26, N-Methyl-2-[[2-[4-(methylcarbamoylamino)phenyl]-6-[(3S)-3-methylmorpholin-4-yl]pyrimidin-4-yl]methylsulfonyl]acetamide] | 7.54
15 | CC(C)S(=O)(=O)Cc1cc(N2CCOC[C@@H]2C)nc(-c2ccc(NC(=O)N(C)C)cc2)n1 [Example 14, 1,1-Dimethyl-3-[4-[4-[(3S)-3-methylmorpholin-4-yl]-6-(propan-2-ylsulfonylmethyl)pyrimidin-2-yl]phenyl]urea] | 6.38
16 | CS(=O)(=O)Cc1cc(N2CCOCC2)nc(-c2ccc(NC(=O)Nc3ccc(F)c(F)c3)cc2)n1 [Example 7k, 3-(3,4-difluorophenyl)-1-[4-[4-(methylsulfonylmethyl)-6-morpholin-4-yl-pyrimidin-2-yl]phenyl]urea] | 6.14

Next, values leading:

Row | pIC50 | SMILES
17 | 6.25 | CN(C)CCCCNC(=O)Nc1ccc(-c2nc(CS(C)(=O)=O)cc(N3CCOCC3)n2)cc1 [Example 45d, 1-(4-dimethylaminobutyl)-3-[4-[4-(methylsulfonylmethyl)-6-morpholin-4-yl-pyrimidin-2-yl]phenyl]urea]
18 | 7.18 | CNC(=O)Nc1ccc(-c2nc(CS(=O)(=O)C(C)C)cc(N3CCOC[C@@H]3C)n2)cc1 [Example 19d, 3-methyl-1-[4-[4-[(3S)-3-methylmorpholin-4-yl]-6-(propan-2-ylsulfonylmethyl)pyrimidin-2-yl]phenyl]urea]
19 | 6.51 | COCCNC(=O)Nc1ccc(-c2nc(N3CCOC[C@@H]3C)cc(C(C)(C)S(C)(=O)=O)n2)cc1 [Example 21k, 3-(2-methoxyethyl)-1-[4-[4-[(3S)-3-methylmorpholin-4-yl]-6-(2-methylsulfonylpropan-2-l)pyrimidin-2-yl]phenyl]urea]
20 | 5.36 | C[C@H]1COCCN1c1cc(CS(C)(=O)=O)nc(-c2ccc(NC(=O)NCc3ccccn3)cc2)n1 [Example 24d, 1-[4-[4-[(3S)-3-methylmorpholin-4-yl]-6-(methylsulfonylmethyl)pyrimidin-2-yl]phenyl]-3-(pyridin-2-ylmethyl)urea]
21 | 6.01 | CCNC(=O)Nc1ncc(-c2nc(N3CCOC[C@@H]3C)cc(C(C)(C)S(C)(=O)=O)n2)s1 [Example 47d, 1-ethyl-3-[5-[4-[(3S)-3-methylmorpholin-4-yl]-6-(2-methylsulfonylpropan-2-yl)pyrimidin-2-yl]-1,3-thiazol-2-yl]urea]
22 | 6.46 | CC(C)NC(=O)Nc1ncc(-c2nc(CS(C)(=O)=O)cc(N3CCOC[C@@H]3C)n2)s1 [Example 46a, 1-[5-[4-[(3S)-3-methylmorpholin-4-yl]-6-(methylsulfonylmethyl)pyrimidin-2-yl]-1,3-thiazol-2-yl]-3-propan-2-yl-urea]
23 | 7.48 | CNC(=O)Nc1ccc(-c2nc(CS(=O)(=O)c3ccc(F)cc3)cc(N3CCOC[C@@H]3C)n2)cc1 [Example 19b, 1-[4-[4-[(4-fluorophenyl)sulfonylmethyl]-6-[(3S)-3-methylmorpholin-4-yl]pyrimidin-2-yl]phenyl]-3-methyl urea]
24 | 7.41 | C[C@H]1COCCN1c1cc(CS(=O)(=O)c2ccccc2)nc(-c2ccc(NC(=O)NC3CC3)cc2)n1 [Example 20g, 1-[4-[4-(benzenesulfonylmethyl)-6-[(3S)-3-methylmorpholin-4-yl]pyrimidin-2-yl]phenyl]-3-cyclopropyl-urea]
25 | 6.05 | CS(=O)(=O)Cc1cc(N2CCOCC2)nc(-c2ccc(NC(=O)NCCN3CCOCC3)cc2)n1 [Example 45o, 1-[4-[4-(methylsulfonylmethyl)-6-morpholin-4-yl-pyrimidin-2-yl]phenyl]-3-(2-morpholin-4-ylethyl)urea]
26 | 5.70 | C[C@H]1COCCN1c1cc(CS(C)(=O)=O)nc(-c2ccc(NC(=O)N(C)C3CC3)cc2)n1 [Example 35m, 1-cyclopropyl-1-methyl-3-[4-[4-[(3S)-3-methylmorpholin-4-yl]-6-(methylsulfonylmethyl)pyrimidin-2-yl]phenyl]urea]
27 | 6.74 | CNC(=O)Nc1ccn(-c2nc(CS(C)(=O)=O)cc(N3CCOC[C@@H]3C)n2)n1 [Example 24k, 3-methyl-1-[1-[4-[(3S)-3-methylmorpholin-4-yl]-6-(methylsulfonylmethyl)pyrimidin-2-yl]pyrazol-3-yl]urea]
28 | 6.82 | CCNC(=O)Nc1ccc(-c2nc(CS(=O)(=O)c3ccccc3)cc(N3CCOCC3)n2)cc1 [Example 20a, 3-[4-[4-(benzenesulfonylmethyl)-6-morpholin-4-yl-pyrimidin-2-yl]phenyl]-1-ethyl-urea]
29 | 8.33 | C[C@H]1COCCN1c1cc(C(C)(C)S(C)(=O)=O)nc(-c2ccc(NC(=O)Nc3ccon3)cc2)n1 [Example 24s, 1-[4-[4-[(3S)-3-methylmorpholin-4-yl]-6-(2-methylsulfonylpropan-2-yl)pyrimidin-2-yl]phenyl]-3-(1,2-oxazol-3-yl)urea]
30 | 5.82 | Cc1nn(C)c(C)c1NC(=O)Nc1ccc(-c2nc(CS(C)(=O)=O)cc(N3CCOC[C@@H]3C)n2)cc1 [Example 22h, 3-[4-[4-[(3S)-3-methylmorpholin-4-yl]-6-(methylsulfonylmethyl)pyrimidin-2-yl]phenyl]-1-(1,3,5-trimethylpyrazol-4-yl)urea]
31 | 6.25 | Cc1cnc(CNC(=O)Nc2ccc(-c3nc(CS(C)(=O)=O)cc(N4CCOC[C@@H]4C)n3)cc2)cn1 [Example 24c, 3-[4-[4-[(3S)-3-methylmorpholin-4-yl]-6-(methylsulfonylmethyl)pyrimidin-2-yl]phenyl]-1-[(5-methylpyrazin-2-yl)methyl]urea]
32 | 5.80 | CN1CCC(NC(=O)Nc2ccc(-c3nc(CS(=O)(=O)c4ccccc4)cc(N4CCOCC4)n3)cc2)CC1 [Example 20d, 3-[4-[4-(benzenesulfonylmethyl)-6-morpholin-4-yl-pyrimidin-2-yl]phenyl]-1-(1-methyl-4-piperidyl)urea]
33 | 7.46 | CCNC(=O)Nc1ccc(-c2nc(CS(=O)(=O)c3ccccc3)cc(N3CCOC[C@@H]3C)n2)cc1 [Example 20f, 3-[4-[4-(benzenesulfonylmethyl)-6-[(3S)-3-methylmorpholin-4-yl]pyrimidin-2-yl]phenyl]-1-ethyl-urea]
34 | 6.14 | C[C@H]1COCCN1c1cc(CS(C)(=O)=O)nc(-c2cnc(NC(=O)NCCN(C)C)s2)n1 [Example 46g, 3-(2-dimethylaminoethyl)-1-[5-[4-[(3S)-3-methylmorpholin-4-yl]-6-(methylsulfonylmethyl)pyrimidin-2-yl]-1,3-thiazol-2-yl]urea]
